The values below come from patent publication US20060148730A1, “Method of treating tuberculosis” (priority 2003, published 2006).

One data set concerns M. tuberculosis. The note with it: literature (Luna-Herrera 1995; Truffot-Pernot 1995); cited from earlier work.
For data set [1], the system named is M. tuberculosis H37Rv. Kind of data set: MIC vs. M. tuberculosis H37Rv, microplate Alamar Blue assay (MABA). The class given is cell-based. Conditions: for enhancement in potency of macrolide over counterpart ketolide: MIC ratio ketolide/macrolide; for anti-TB activity / MIC in words: result in words. (The colour change of resazurin is a common sign of viable cells or microbes.)

For data set [2], the system named is M. tuberculosis H37Rv. Conditions: cited from earlier work.
Data set [3] has as its system VERO cells. Briefly: Cytotoxicity against VERO cells (MTS, 72 hours). Conditions: for IC50: Chlorocebus sabaeus, Vero.
Data set [4] has as its system VERO cells.
The test system of a further data set is M. tuberculosis Erdman. The class given is in vivo, BALB/c mice.
The subject of data set [5] is J774.1 macrophage cell line. Kind of data set: Cytotoxicity against J774.1 macrophage cell line. The data set is classed as cell-based, murine. Conditions: Mus musculus, J774.1; Table 1a; toxicity; read-out: J774 IC50.
Data set [6] can be described thus: Overt toxicity in mice, escalating 5-day dosing cycles. Conditions: once daily, 5-day cycles, sequentially 200, 300, 400, 500 mg/kg. The data set is classed as in vivo, Balb/C mice. The method, then: Prior to assessing in vivo efficacy, RU66252 and RU69874 were administered to pairs of female Balb/C mice once daily for 5-day cycles, and observed for overt signs of toxicity (e.g., weight loss, ruffled fur, and huddling), after which the mice were rested for 1 or 2 days. Then the dosage was increased for another 5-day cycle. Overall, the same mice received sequentially for 5 days: 200, 300, 400, and 500 mg/kg.

Converted amounts (≈) assume the structure as drawn. “Also recorded” adds a separate entry of the source. Read-outs that look alike come from different tables or passages of the source.

Turning to `CC[C@H]1OC(=O)[C@H](C)[C@@H](O[C@H]2C[C@@](C)(OC)[C@@H](O)[C@H](C)O2)[C@H](C)[C@@H](O[C@@H]2O[C@H](C)C[C@H](N(C)C)[C@H]2O)[C@](C)(OC)C[C@@H](C)C(=O)[C@H](C)[C@@H](O)[C@]1(C)O` [Clarithromycin, reference compound], the “activity in mouse models” value in the data set with M. tuberculosis was “marginal and nil”. Further, the “enhancement in potency of macrolide over counterpart ketolide” value in the data set on M. tuberculosis H37Rv [1] is recorded as 16 fold. Also, the MIC with M. tuberculosis H37Rv [1] (Table 2a, 11,12-diols, anti-TB activity, read-out: MIC) is 8 µM (≈ 5.98 µg/mL).

Consider `NNC(=O)c1ccncc1` [Isoniazid], for which the “expected MIC range of positive quality control compound” value in the data set on M. tuberculosis H37Rv [2] is 0.025 to 0.1 µg/mL.

For the compound `CCCCCCCCCCN1CCCC(O/N=C2\[C@H](C)C[C@@](C)(OC)[C@H](O[C@@H]3O[C@H](C)C[C@H](N(C)C)[C@H]3O)[C@@H](C)C(=O)[C@@H](C)C(=O)O[C@H](CC)[C@@](C)(O)[C@H](O)[C@H]2C)C1` (some centres unmarked) [RU60887], in the data set with VERO cells [3], the “selectivity index (SI), VERO cells” value came to 221. The “in vitro toxicity / cytotoxicity in words” value in the data set with VERO cells [4] is recorded as “comparable to clarithromycin”. In the data set with M. tuberculosis H37Rv [1], the “anti-TB activity / MIC in words” value is listed as “most potent of the tested 9-oxime compounds; also recorded: very low”.

`CC[C@H]1OC(=O)[C@H](C)C(OC2CC(C)(OC)[C@@H](O)[C@H](C)O2)[C@H](C)[C@@H](O[C@@H]2O[C@H](C)C[C@H](N(C)C)[C@H]2O)[C@](C)(OC)C[C@@H](C)C(=O)[C@H](C)[C@H]2N(NCCCc3ccnc4ccccc34)C(=O)O[C@]12C` (some centres unmarked) [RU66252]: in the data set on M. tuberculosis Erdman ([…], 100 and 200 mg/kg qd, untreated controls abnormally low), the “activity against M. tuberculosis in the acute phase of infection” value was “dose-dependent activity”. Also, in the data set with M. tuberculosis Erdman (treated mouse lung homogenates), the “colonies on 10-2 dilution plates of lung homogenates” value was “no colonies”. Further, the IC50 turned out to be 24.9 µM in the data set with VERO cells [3] (read-out: Vero IC50), 25 µM with VERO cells [3] (read-out: toxicity based on VERO cells) and 16.1 µM in data set [5]. For the same compound, in the data set on VERO cells [3] (result in words), the “in vitro toxicity / cytotoxicity in words” value was “comparable to clarithromycin”. In addition, the “signs of overt toxicity (weight loss, ruffled fur, huddling)” value in data set [6] is “No signs of overt toxicity”. Also, the “enhancement in potency of macrolide over counterpart ketolide” value in the data set with M. tuberculosis H37Rv [1] came out at 16 fold. The MIC in the data set on M. tuberculosis H37Rv [1] (Mycobacterium tuberculosis, H37RV, Table 1a, 11,12-carbamate derivatives, anti-TB activity, read-out: MIC) was 0.25 µM (≈ 0.239 µg/mL); with M. tuberculosis H37Rv [1] (Mycobacterium tuberculosis, H37RV, Table 3, parallel-synthesis carbazate library products, SPE purified, read-out: MIC), 9 µM (≈ 8.61 µg/mL); with M. tuberculosis H37Rv [1] (Mycobacterium tuberculosis, H37RV, follow-up assays, read-out: MIC vs. M. tuberculosis in follow-up assays), ~9 µM (≈ 8.61 µg/mL); with M. tuberculosis H37Rv [1] (Mycobacterium tuberculosis, H37RV, read-out: minimum inhibitory concentration (MIC) against M. tuberculosis), 0.25 µM (≈ 0.239 µg/mL). In addition, the “anti-TB activity / MIC in words” value in the data set on M. tuberculosis H37Rv [1] was “very low”.
